Assay results reported in patent US4264734A, “Process for producing antibiotic desacetyl 890A10” (Merck & Co., Inc., priority 1979, dated 1981).

Key:
[1] = system: Vibrio percolans ATCC 8461; experiment: Assay for 890 Assay Units, agar plate disc-diffusion method, cephaloridine as standard; type: cell-based; conditions: 25 mm. zone of inhibition on a 5 ml. plate
Protocol: II. Assay Procedure for Determining "890 Assay Units" A conventional agar plate disc-diffusion method is employed using Vibrio percolans ATCC 8461 as tester organism. Cephaloridine is employed as a standard. Plates containing Vibrio percolans ATCC 8461 are prepared as follows. A culture of Vibrio percolans ATCC 8461 is incubated in nutrient broth-yeast extract overnight on a rotary shaker at 28° C. and then diluted to a density of 60% transmittance at 660 nm. A 33.2 ml. portion of this diluted culture is added to 1 liter of a medium composed of nutrient agar plus 0.2% yeast extract maintained at 46° C. The inoculated agar-containing medium is poured into 100×15 mm. plastic-petri dishes, 10 ml. per dish, chilled, and maintained at 2°-4° C. for up to 5 days before use. The concentration of cephaloridine which is equivalent to 1 unit/ml. of 890A1 is determined by assay on plates prepared as above, but containing 5 ml. of inoculated medium per plate, as follows. Four concentrations of cephaloridine constitute the standard--3.12, 6.25, 12.5 and 25 mcg per ml. with the 12.5 mcg per ml. as a reference solution. The zone diameters on a 5 ml. plate for the standard are as follows: A unit is defined as the amount of antibiotic per ml. producing a 25 mm. zone of inhibition on a 5 ml. plate as described in section I above. […]

[2] = system: gram-positive and gram-negative bacteria; experiment: Antibacterial activity (general statement); type: cell-based; conditions: no test values printed
[3] = system: Staphylococcus aureus ATCC 6538P; experiment: Electrophoresis followed by bioactivity on Staphylococcus aureus assay plate; type: cell-based; conditions: after incubation of 890A10 with cell sonicate and electrophoresis at pH 7.1; 37° C., 18 hours
Protocol: The flasks are shaken at 28° C. on a 220 rpm (2" throw) shaker for 4 days. A 30 ml. portion from each flask is centrifuged for 15 minutes at 8,000 rpm. The supernatant portion is removed, leaving only enough to form a thick suspension of cells and media solids. Half of the suspension is subjected to ultrasonic disruption using a Branson Instrument Model LS-75 Sonifier with a 1/2 inch probe. The input power is set at position No. 4, and four successive 15 second cycles of irradiation are used, while chilling the suspension in ice water during and between disruption. To test for the presence of N-acetyl-890A10 amidohydrolase activity, a 10-μl. portion of the sonicate is mixed with 25 μl. of an 890A10 solution containing 500 μg. per ml. Controls containing antibiotic and buffer alone; and sonicated cells and buffer without antibiotic are also run. After incubation overnight at 28° C., 10 μl. quantities are applied to Schleicher and Schuell No. 2043-B paper. Using 0.03 M potassium phosphate buffer pH 7.1, a voltage gradient of 50 volts/cm. is applied for 30 minutes. The paper is placed on a Staphylococcus aureus ATCC 6538P plate and incubated at 37° C. for 18 hours. […]
The flask is shaken at 28° C. on a 220 rpm (2-inch throw) shaker for four days. […] After incubation overnight at 28° C., 10-μl. quantities are applied to Schleicher & Schuell No. 2043-B paper. […]

[4] = Stability under acidic conditions in aqueous solution; type: physicochemical

Compound	concentration considered equivalent to 1 unit of 890A1 per ml [1]	antibacterial activity [2]	bioactive spot on Staphylococcus aureus plate [3]	stability under acidic conditions [4]
O=C(Cc1cccs1)N[C@@H]1C(=O)N2C(C(=O)[O-])=C(C[n+]3ccccc3)CS[C@H]12 [cephaloridine]	12.5 mcg per ml.	–	–	–
CC(OS(=O)(=O)O)C1C(=O)N2C(C(=O)O)=C(SCCN)CC12 (centres unmarked) [desacetyl 890A10]	–	active against various gram-positive and gram-negative bacteria	bioactive	–
CC(=O)NCCSC1=C(C(=O)O)N2C(=O)C(C(C)OS(=O)(=O)O)C2C1 (centres unmarked) [890A10]	–	–	bioactive	unstable
